Measurements as given in US20050112573A1, “Method of detecting toxic substance” (priority 2001, published 2005).

Tested on: yeast genes (level of expressed mRNA)
Assay: DNA chip analysis of expressed mRNA of yeast genes after 2 h culture with a toxic chemical substance
Assay type: cell-based, Saccharomyces cerevisiae S288C
Conditions: for The level of expressed mRNA in the presence of chemical substance/ (ratio to absence): transport facilitation protein gene; for The level of expressed mRNA in the presence of chemical substance/: ratio to no chemical; for The level of expressed mRNA in the presence of chemical substance/ (ratio to absence of chemical substance): stress protein genes, DNA chip
Outline: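 S. cerevisiae S288C grown at 25° C in YPD; toxicant added at log phase at growth-inhibitory, non-lethal levels for 2 h, untreated cells as control. Poly(A) mRNA reverse-transcribed with Cy3/Cy5-dUTP, hybridized to whole-genome chip at 65° C >12 h; value is fluorescence ratio versus untreated.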

Substance: sodium dodecylbenzosulfonate [(17)]
- level of expressed mRNA in the presence of chemical substance/in its absence (gene YNL037C): 0.9
- level of expressed mRNA in the presence of chemical substance/in its absence (gene YNL045W): 1.1
- The level of expressed mRNA in the presence of chemical substance/absence: YNL058C (gene YNL058C): 0.8
- The level of expressed mRNA in the presence of chemical substance/absence: YNL063W (gene YNL063W): 0.9
- level of expressed mRNA in the presence of chemical substance/in its absence (gene YNL104C): 0.9
- level of expressed mRNA in the presence of chemical substance/in its absence (gene YNL106C): 1.1
- level of expressed mRNA in the presence of chemical substance/in its absence (gene YNL130C): 0.7
- level of expressed mRNA in the presence of chemical substance/in its absence (gene YNL169C): 1.1
- The level of expressed mRNA in the presence of chemical substance/absence: YNL176C (gene YNL176C): 0.6
- The level of expressed mRNA in the presence of chemical substance/absence: YNL181W (gene YNL181W): 0.8
- The level of expressed mRNA in the presence of chemical substance/absence: YNL191W (gene YNL191W): 0.5
- The level of expressed mRNA in the presence of chemical substance/absence: YNL194C (gene YNL194C): 0.8
- The level of expressed mRNA in the presence of chemical substance/absence: YNL200C (gene YNL200C): 1.2
- The level of expressed mRNA in the presence of chemical substance/absence: YNL212W (gene YNL212W): 0.9
- level of expressed mRNA in the presence of chemical substance/in its absence (gene YNL231C): 3.1
- The level of expressed mRNA in the presence of chemical substance/absence: YNL253W (gene YNL253W): 1.1
- The level of expressed mRNA in the presence of chemical substance/absence: YNL265C (gene YNL265C): 0.9
- The level of expressed mRNA in the presence of chemical substance/absence: YNL276C (gene YNL276C): 1.1
- level of expressed mRNA in the presence of chemical substance/in its absence (gene YNL322C): 0.9
- level of expressed mRNA in the presence of chemical substance/in its absence (gene YNR002C): 1.5
- level of expressed mRNA in the presence of chemical substance/in its absence (gene YNR019W): 2.4
- level of expressed mRNA in the presence of chemical substance/in its absence (gene YNR033W): 0.9
- The level of expressed mRNA in the presence of chemical substance/absence: YNR051C (gene YNR051C): 0.7
- level of expressed mRNA in the presence of chemical substance/in its absence (gene YNR059W): 2.6
- The level of expressed mRNA in the presence of chemical substance/absence: YOL026C (gene YOL026C): 2.1
- The level of expressed mRNA in the presence of chemical substance/absence: YOL030W (gene YOL030W): 0.9
- level of expressed mRNA in the presence of chemical substance/in its absence (gene YOL058W): 1.2
- level of expressed mRNA in the presence of chemical substance/in its absence (gene YOL126C): 1.6
- level of expressed mRNA in the presence of chemical substance/in its absence (gene YOL143C): 1.8
- level of expressed mRNA in the presence of chemical substance/in its absence (gene YOL153C): 1.1
- level of expressed mRNA in the presence of chemical substance/in its absence (gene YOL157C): 1.4
- The level of expressed mRNA in the presence of chemical substance/absence: YOR022C (gene YOR022C): 1.1
- The level of expressed mRNA in the presence of chemical substance/absence: YOR087W (gene YOR087W): 0.8
- The level of expressed mRNA in the presence of chemical substance/absence: YOR088W (gene YOR088W): 0.7
- level of expressed mRNA in the presence of chemical substance/in its absence (gene YOR099W): 1.2
- level of expressed mRNA in the presence of chemical substance/in its absence (gene YOR130C): 1.5
- level of expressed mRNA in the presence of chemical substance/in its absence (gene YOR136W): 0.8
- The level of expressed mRNA in the presence of chemical substance/absence: YOR138C (gene YOR138C): 1.1
- The level of expressed mRNA in the presence of chemical substance/absence: YOR155C (gene YOR155C): 0.8
- The level of expressed mRNA in the presence of chemical substance/absence: YOR253W (gene YOR253W): 0.9
- The level of expressed mRNA in the presence of chemical substance/absence: YOR267C (gene YOR267C): 1.3
- The level of expressed mRNA in the presence of chemical substance/absence: YOR325W (gene YOR325W): 0.8
- level of expressed mRNA in the presence of chemical substance/in its absence (gene YOR336W): 1.0
- level of expressed mRNA in the presence of chemical substance/in its absence (gene YOR344C): 1.3
- level of expressed mRNA in the presence of chemical substance/in its absence (gene YOR347C): 1.7
- The level of expressed mRNA in the presence of chemical substance/absence: YPL005W (gene YPL005W): 1.2
- level of expressed mRNA in the presence of chemical substance/in its absence (gene YPL017C): 1.3
- The level of expressed mRNA in the presence of chemical substance / the level in the absence of chemical substance, yeast gene YPL107W (gene YPL107W, DNA chip fluorescence ratio to control without chemical, 2 hours culture with chemical, growth-inhibiting non-lethal concentration): 1.0
- The level of expressed mRNA in the presence of chemical substance / the level in the absence of chemical substance, yeast gene YPL138C (gene YPL138C, DNA chip fluorescence ratio to control without chemical, 2 hours culture with chemical, growth-inhibiting non-lethal concentration): 0.8
- The level of expressed mRNA in the presence of chemical substance/absence: YPL150W (gene YPL150W): 1.4
- The level of expressed mRNA in the presence of chemical substance/absence: YPL151C (gene YPL151C): 0.8
- The level of expressed mRNA in the presence of chemical substance/absence: YPL152W (gene YPL152W): 1.2
- The level of expressed mRNA in the presence of chemical substance/absence: YPL168W (gene YPL168W): 1.1
- The level of expressed mRNA in the presence of chemical substance/absence: YPL180W (gene YPL180W): 1.0
- The level of expressed mRNA in the presence of chemical substance/absence: YPL188W (gene YPL188W): 0.7
- The level of expressed mRNA in the presence of chemical substance/absence: YPL221W (gene YPL221W): 1.5
- The level of expressed mRNA in the presence of chemical substance/absence: YPL225W (gene YPL225W): 1.0
- The level of expressed mRNA in the presence of chemical substance/absence: YPL249C (gene YPL249C): 0.8
- The level of expressed mRNA in the presence of chemical substance/absence: YPL260W (gene YPL260W): 0.8
- level of expressed mRNA in the presence of chemical substance/in its absence (gene YPL265W): 0.5
- level of expressed mRNA in the presence of chemical substance/in its absence (gene YPR006C): 1.8
- level of expressed mRNA in the presence of chemical substance/in its absence (gene YPR026W): 0.9
- The level of expressed mRNA in the presence of chemical substance/absence: YPR049C (gene YPR049C): 1.0
- The level of expressed mRNA in the presence of chemical substance/absence: YPR061C (gene YPR061C): 1.1
- The level of expressed mRNA in the presence of chemical substance/absence: YPR093C (gene YPR093C): 1.4
- The level of expressed mRNA in the presence of chemical substance/absence: YPR146C (gene YPR146C): 1.0
- The level of expressed mRNA in the presence of chemical substance/absence: YPR148C (gene YPR148C): 0.9
- The level of expressed mRNA in the presence of chemical substance/absence: YPR150W (gene YPR150W): 0.9
- The level of expressed mRNA in the presence of chemical substance/absence: YPR158W (gene YPR158W): 0.9
- The level of expressed mRNA in the presence of chemical substance/absence: YPR169W (gene YPR169W): 1.1
- The level of expressed mRNA in the presence of chemical substance/absence: YPR172W (gene YPR172W): 1.1
- The level of expressed mRNA in the presence of chemical substance/absence: YPR174C (gene YPR174C): 1.4
- The level of expressed mRNA in the presence of chemical substance/in the absence of chemical substance (yeast gene YAL023C): 1.0
- The level of expressed mRNA in the presence of chemical substance/in the absence of chemical substance (yeast gene YAL060W): 1.1
- The level of expressed mRNA in the presence of chemical substance/in the absence of chemical substance (yeast gene YAL062W): 1.0
- The level of expressed mRNA in the presence of chemical substance/ (ratio to absence) (yeast gene YAL067C): 1.0
- The level of expressed mRNA in the presence of chemical substance/The level of expressed mRNA in the absence of chemical substance (yeast gene YAR010C): 1.5
- The level of expressed mRNA in the presence of chemical substance/The level of expressed mRNA in the absence of chemical substance (yeast gene YBL005W-A): 1.3
- The level of expressed mRNA in the presence of chemical substance/ (ratio to absence) (yeast gene YBL030C): 1.0
- The level of expressed mRNA in the presence of chemical substance/ (ratio to absence), gene YBL038W (yeast gene YBL038W, mitochondria-located protein genes, 2 h culture with chemical): 1.2
- The level of expressed mRNA in the presence of chemical substance/The level of expressed mRNA in the absence of chemical substance (yeast gene YBL041W): 1.3
- The level of expressed mRNA in the presence of chemical substance/The level of expressed mRNA in the absence of chemical substance (yeast gene YBL043W): 2.3
- The level of expressed mRNA in the presence of chemical substance/ (yeast gene YBL065W): 1.1
- The level of expressed mRNA in the presence of chemical substance/The level of expressed mRNA in the absence of chemical substance (yeast gene YBL078C): 1.8
- The level of expressed mRNA in the presence of chemical substance/ (ratio to absence of chemical substance) (yeast gene YBL093C): 1.4
- The level of expressed mRNA in the presence of chemical substance/ (ratio to absence) (yeast gene YBL099W): 0.7
- The level of expressed mRNA in the presence of chemical substance/in the absence of chemical substance (yeast gene YBR006W): 1.2
- The level of expressed mRNA in the presence of chemical substance/ (in its absence), gene YBR036C (yeast gene YBR036C, ratio of DNA chip fluorescence intensity to that without chemical substance): 2.1
- The level of expressed mRNA in the presence of chemical substance/ (ratio to absence of chemical substance) (yeast gene YBR044C): 0.9
- The level of expressed mRNA in the presence of chemical substance/ (yeast gene YBR047W): 1.3
- The level of expressed mRNA in the presence of chemical substance/ (ratio to absence) (yeast gene YBR052C): 1.8
- The level of expressed mRNA in the presence of chemical substance/in the absence of chemical substance (yeast gene YBR056W): 2.4
- The level of expressed mRNA in the presence of chemical substance/ (ratio to absence) (yeast gene YBR068C): 1.1
- The level of expressed mRNA in the presence of chemical substance/ (yeast gene YBR101C): 0.9
